Measured values published in patent US12458709B2, “Compositions and methods for imaging a cell” (NOVOCURE GMBH, priority 2019, dated 2025).

What follows are compounds tested on clathrin-dependent pathway or macro-pinocytosis pathway (assay: Effect of endocytosis pathway inhibitors on BTNP accumulation in response to TTFields). Conditions: specific inhibitors of clathrin-dependent or macro-pinocytosis pathway.
Format: cell-based

**Q.** How did the “effect on accumulation of BTNPs in cytoplasm in response to TTFields” value (“effect on accumulation of BTNPs” below) turn out when N=C(N)NC(=O)c1nc(Cl)c(N)nc1N [amiloride] was run?
**A.** did not modulate

**Q.** CN(C)CCCN1c2ccccc2Sc2ccc(Cl)cc21 [chlorpromazine] was tested. Which “effect on accumulation of BTNPs” value did it give?
**A.** did not modulate

**Q.** With C=C1[C@@H](C)[C@H]2[C@H](Cc3ccccc3)NC(=O)[C@]23[C@H](OC(C)=O)/C=C/[C@@](C)(O)C(=O)[C@@H](C)C/C=C/[C@H]3[C@@H]1O [cytochalasin D] as the compound, how does the “effect on accumulation of BTNPs” value read?
**A.** did not modulate
